Test results taken from paper PMC7377239, “Cardiovascular Effects of Polychlorinated Biphenyls and Their Major Metabolites” (Environmental Health Perspectives, 2020).
Where two headings read alike, the source gives them in different places.

What was measured:
[1] = test system: iCell endothelial cells (human iPSC-derived ECs); assay: Tube formation (tubulogenesis) assay in iCell endothelial cells, 18 h; type: cell-based; conditions: Homo sapiens, Endothelial cell, iPSC-EC tube formation, 18 hr; for activity at 0.1 µM: 0.10 µM; for minimal effective concentration: top concentration 100.00 µM
Procedure, shortened: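 Tube formation was measured by calcein AM imaging after overnight compound exposure (37°C, 0.5% DMSO vehicle) of human iPSC-derived ECs, 7,500/well, on reduced-growth-factor Geltrex in starvation medium. Vehicle-normalized data fitted to four-parameter logistic; POD set at one vehicle SD; without response, 100 μM taken as NOAEL.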

[2] = test system: HUVECs; assay: High-content imaging cytotoxicity in HUVECs, 24 h; type: cell-based, human; conditions: Homo sapiens, HUVEC, 24 h, HUVECs; for viability at 0.01 µM / activity at 0.01 µM / viability at 0.1 µM / activity at 0.1 µM / viability at 1 µM / activity at 1 µM / viability at 10 µM / activity at 10 µM / viability at 100 µM / activity at 100 µM: 0.00 µM = 100.00; for viability at 0.1 µM / activity at 0.1 µM: 0.10 µM; for minimal effective concentration: top concentration 100.00 µM
Procedure, shortened: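 Read-out: multiwavelength high-content imaging of Hoechst 33342, MitoTracker Orange and calcein AM after 24 h compound exposure of confluent HUVEC monolayers. POD values were set using a one-SD cutoff from vehicle (0.5% DMSO) means; with no concentration–response, 100μM was assigned as no observable adverse effect level.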

[3] = 0.00 µM control = 100.00, read-out: endo.mtl.18hr
[4] = 0.00 µM control = 100.00, read-out: endo.tlps.18hr
[5] = 0.00 µM control = 100.00, read-out: endo.tta.18hr
[6] = 0.00 µM control = 100.00, read-out: endo.ttl.18hr
[7] = 24 hr, read-out: huvec.cyto.24hr
[8] = 24 hr, read-out: huvec.mito.24hr
[9] = 24 hr, read-out: huvec.mitoint.24hr
[10] = 24 hr, read-out: huvec.nma.24hr
[11] = 24 hr, read-out: huvec.cyto.24hr POD
[12] = 24 hr, read-out: huvec.mito.24hr POD
[13] = 24 hr, read-out: huvec.mitoint.24hr POD
[14] = 24 hr, read-out: huvec.nma.24hr POD
[15] = 24 hrs, read-out: huvec.tc.24hrs
[16] = 24 hrs, read-out: huvec.tc.24hrs POD

Oc1cc(Cl)c(-c2cc(Cl)ccc2Cl)cc1Cl [4-OH PCB52]
activity at 0.01 µM [1, 3]: 114%
activity at 0.01 µM [1, 4]: 107%
activity at 0.01 µM [1, 5]: 144%
activity at 0.01 µM [1, 6]: 144%
activity at 0.1 µM [1, 3]: 119%
activity at 0.1 µM [1, 4]: 109%
activity at 0.1 µM [1, 5]: 116%
activity at 0.1 µM [1, 6]: 125%
activity at 1 µM [1, 3]: 111%
activity at 1 µM [1, 4]: 129%
activity at 1 µM [1, 5]: 118%
activity at 1 µM [1, 6]: 124%
activity at 10 µM [1, 3]: 84.5%
activity at 10 µM [1, 4]: 70.9%
activity at 10 µM [1, 5]: 86%
activity at 10 µM [1, 6]: 85.7%
activity at 100 µM [1, 3]: 0%
activity at 100 µM [1, 4]: 0%
activity at 100 µM [1, 5]: 0%
activity at 100 µM [1, 6]: 0%
minimal effective concentration ([1]; read-out: endo.mtl.18hr POD): 9.52 µM
minimal effective concentration ([1]; read-out: endo.tlps.18hr POD): 8.32 µM
minimal effective concentration ([1]; read-out: endo.tta.18hr POD): 15 µM
minimal effective concentration ([1]; read-out: endo.ttl.18hr POD): 15.2 µM
viability at 0.01 µM [2, 7]: 94.4%
activity at 0.01 µM [2, 8]: 93.5%
activity at 0.01 µM [2, 9]: 103%
activity at 0.01 µM [2, 10]: 98.9%
viability at 0.1 µM [2, 7]: 120%
activity at 0.1 µM [2, 8]: 118%
activity at 0.1 µM [2, 9]: 104%
activity at 0.1 µM [2, 10]: 94.5%
viability at 1 µM [2, 7]: 93.9%
activity at 1 µM [2, 8]: 93.9%
activity at 1 µM [2, 9]: 111%
activity at 1 µM [2, 10]: 98%
viability at 10 µM [2, 7]: 46.9%
activity at 10 µM [2, 8]: 33.2%
activity at 10 µM [2, 9]: 15.3%
activity at 10 µM [2, 10]: 61.6%
viability at 100 µM [2, 7]: 72%
activity at 100 µM [2, 8]: 0.65%
activity at 100 µM [2, 9]: 5.52%
activity at 100 µM [2, 10]: 119%
minimal effective concentration [2, 11]: 1 µM
minimal effective concentration [2, 12]: 1.1 µM
minimal effective concentration [2, 13]: 2.32 µM
minimal effective concentration [2, 14]: 100 µM
viability at 0.01 µM [2, 15]: 94.4%
viability at 0.1 µM [2, 15]: 120%
viability at 1 µM [2, 15]: 93.9%
viability at 10 µM [2, 15]: 46.9%
viability at 100 µM [2, 15]: 77.5%
minimal effective concentration [2, 16]: 1 µM

Oc1cc(Cl)cc(-c2cccc(Cl)c2)c1 [5-OH PCB 11]
activity at 0.01 µM [1, 3]: 117%
activity at 0.01 µM [1, 4]: 105%
activity at 0.01 µM [1, 5]: 155%
activity at 0.01 µM [1, 6]: 155%
activity at 0.1 µM [1, 3]: 102%
activity at 0.1 µM [1, 4]: 110%
activity at 0.1 µM [1, 5]: 125%
activity at 0.1 µM [1, 6]: 125%
activity at 1 µM [1, 3]: 109%
activity at 1 µM [1, 4]: 124%
activity at 1 µM [1, 5]: 134%
activity at 1 µM [1, 6]: 132%
activity at 10 µM [1, 3]: 53.8%
activity at 10 µM [1, 4]: 26.9%
activity at 10 µM [1, 5]: 38.5%
activity at 10 µM [1, 6]: 37.3%
activity at 100 µM [1, 3]: 46.3%
activity at 100 µM [1, 4]: 12.3%
activity at 100 µM [1, 5]: 1.58%
activity at 100 µM [1, 6]: 2.12%
minimal effective concentration ([1]; read-out: endo.mtl.18hr POD): 5.28 µM
minimal effective concentration ([1]; read-out: endo.tlps.18hr POD): 5.71 µM
minimal effective concentration ([1]; read-out: endo.tta.18hr POD): 6.97 µM
minimal effective concentration ([1]; read-out: endo.ttl.18hr POD): 7.34 µM
viability at 0.01 µM [2, 7]: 94.6%
activity at 0.01 µM [2, 8]: 93.1%
activity at 0.01 µM [2, 9]: 89.8%
activity at 0.01 µM [2, 10]: 98.5%
viability at 0.1 µM [2, 7]: 87.5%
activity at 0.1 µM [2, 8]: 86.8%
activity at 0.1 µM [2, 9]: 107%
activity at 0.1 µM [2, 10]: 111%
viability at 1 µM [2, 7]: 93.9%
activity at 1 µM [2, 8]: 93.3%
activity at 1 µM [2, 9]: 101%
activity at 1 µM [2, 10]: 99.7%
viability at 10 µM [2, 7]: 35.9%
activity at 10 µM [2, 8]: 29.1%
activity at 10 µM [2, 9]: 17.5%
activity at 10 µM [2, 10]: 69.5%
viability at 100 µM [2, 7]: 24.1%
activity at 100 µM [2, 8]: 13.2%
activity at 100 µM [2, 9]: 12%
activity at 100 µM [2, 10]: 77.5%
minimal effective concentration [2, 11]: 0.95 µM
minimal effective concentration [2, 12]: 0.84 µM
minimal effective concentration [2, 13]: 3.3 µM
minimal effective concentration [2, 14]: 1.22 µM
viability at 0.01 µM [2, 15]: 94.6%
viability at 0.1 µM [2, 15]: 87.5%
viability at 1 µM [2, 15]: 93.9%
viability at 10 µM [2, 15]: 36%
viability at 100 µM [2, 15]: 26.8%
minimal effective concentration [2, 16]: 0.95 µM
